# Source: US7091238B1, “Thienylhydrazon with digitalis-like properties (positive inotropic effects)” (University of Maryland, priority 1999, dated 2006)
# Entries after “also recorded” stand apart in the source; their conditions may differ.
# What was measured:
# LD 50 in dogs = format: in vivo; conditions: dog, in vivo
# Procedure: (§1) LASSBio-294 has very low toxic effects. This was tested in whole mouse, rat, and dog models (Greaves, P. (1998) Exp. Toxicol. Pathol. 50, 283). These models are commonly used to predict toxicity in humans (Chou, W. L., Robbie G., Chung, S. M., Wu, T. C., and Ma, C. (1998) Pharm. Res. 15, 1474). […] These tests predict LASSBio-294 can be dosed in humans to achieve therapeutic plasma levels without significant risk of toxicity.
# dogs = assay: LD 50 in dogs; format: in vivo; conditions: dogs
# Procedure: as §1
# single muscle fiber = assay: Fatigue development in single amphibian muscle fibers under repetitive tetanic stimulation; format: cell-based, frog, rana pipiens
# Procedure: FIG. 17. Time course of fatigue development. Fatigue was produced by 60 Hz, 0.8 sec tetanic stimulations repeated every 4.75 sec with a twitch elicited 2.2 sec after each tetanic stimulation. a) single tetanus. b) repeated tetanic stimulations. Notice the time calibration. A) In 50 μM of DMSO only B) Same as in A, but the fiber was bathed with 50 μM of compound LASSBio-294.
# FIG. 28. Time (in min) for tetanic force to decrease (fatigue) to 50% of the original tetanic force during repetitive stimulations as in FIG. 17. Left column in 50 μM of DMSO only (˜6 in). Right column in 50 μM of LASSBio-294 (˜9 min).
# FIG. 29. Time of recovery to 80% of the pre-fatigue tetanic force. Left column in 50 μM of DMSO only (˜90 min). Right column in 50 μM of LASSBio-294 (˜10 min).
# c. […] A is 50 μM DMSO in Ringer's solution, B is 50 μM LASSBio-294. The time to fatigue in LASSBio-294-treated is approximately 50% longer than control.
# The tests in amphibians were performed in isolated single muscle cells freshly isolated from either the semitendinous or the tibialis anterior muscles of the frog, rana pipiens. The isolated muscle cells were left resting for at least half an hour in Ringer's solution. The fibers were then stimulated with single, low-voltage, electric shocks. If fibers gave brisk twitches and had no signs of membrane damage, they were used. Otherwise, they were discarded. Healthy fibers were transferred to the experimental chamber, which consisted of a 0.3 ml narrow channel where the solutions could be changed several times within five seconds. One tendon of the fiber was gripped with a small clamp and the other tendon was attached to a hook of an Ekhart;s type force transducer. The stimulating electrode consisted of platinum wires placed to each side of the fiber. The muscle fibers were stretched 1.3 times their slack length to reach approximately an average sarcomere length of 1.6 μm.
# The fibers were stimulated with single electric pulses of 0.5 msec duration and variable voltage. The voltage was increased until the threshold for contraction was reached. […]
# isolated rat heart = assay: Electrocardiogram of isolated heart (modified Langendorff perfusion); conditions: isolated rat heart without pre-load; 10, 50, 100 μM
# Procedure: FIG. 4. Hearts of adult rats were quickly removed and placed in an aorta retrograde perfusion system (modified Langendorrff) for measurement of electrocardiogram (ECG).
# (§2) a Recordings of electrocardiogram (ECG) of isolated rat heart are shown in FIG. 4 which compare control, LASSBio-294 treatment, 10 uM, 50 μM and 100 μM and post-treatment wash. […] FIG. 5 illustrates a test of change in isometric tension induced by LASSBio-294 in isolated hearts under preload. Concentration of LASSBio-294 in the bathing solution is 50 μM, which is half of the highest concentration tested in the ECG tests described in FIG. 4. Hearts were treated under a pre-load of 1 g; control was compared to LASSBio-294 and wash. […] This effect was lost in the wash out period. The pre-load tension test is considered to be an animal model of congestive heart disease. Comparing the effect of drugs with this test is predictive of therapeutic effect of treatment in human congestive heart disease. General Method
# (§3) Hearts were quickly removed and placed in an aorta retrograde perfusion system for measurement of ECG. Increasing concentrations of LASSBio-294 were added to the bathing solution. The system equilibrated for 5 min. before measurement of isometric tension after each addition.
# isolated dog hearts = assay: Intraventricular and aortic pressure in isolated dog hearts under pre-load (Langendorff's method); conditions: compared to control or wash out
# Excerpt: Predictive tests can also be performed on isolated hearts of animals. Testing intraventricular and arterial pressure in isolated dog hearts, under pre-load, is an animal model for human congestive heart disease, as is well known in the art. This is called Langendorff's method. It allows examination of therapeutic strategies to treat congestive heart disease. When dog hearts were so tested, LASSBio-294 treated hearts achieved a 50% increase in intraventricular and aortic pressure compared to control or wash out after treatment. […] These tests predict that the invention has utility as a medicament in the treatment of congestive heart failure (Curtis, M. J., (1998) Cardiovasc. Res. 39, 194–21, incorporated expressly by reference herein).
# tissues and organs = assay: Histopathological study of tissues and organs after daily injection; format: in vivo, rat; conditions: 2 or 10 mg/kg injected daily for more than 14 days
# isolated hearts = assay: Isometric (twitch) tension in isolated hearts under pre-load; parameters: species or system rat; conditions: 50 μM in bathing solution; pre-load of 1 g; vs control and wash
# Procedure: FIG. 5. Recordings of twitch tension in isolated hearts. Control (top), LASSBio-294 (middle) and wash (bottom).
# as §2, §3
# [1] = system: neuromuscular transmission; assay: Contractions of gastrocnemius muscle induced by stimulation of the sciatic nerve; format: in vivo; conditions: rat gastrocnemius, vs DMSO vehicle
# Procedure: FIG. 30. Records of contractions induced by stimulation of the sciatic nerve of equilibrated rat gastrocnemius muscles and of arterial pressure. In control, contractions were induced by intravenous injection of DMSO ([…]). LASSBio-294 was administered in DMSO. Calibration: Horizontal, 1 cm=24 s; Vertical 2 g=100 mm Hg.
# FIG. 31. Records of contractions of rat gastrocnemius muscles induced by stimulation of the sciatic nerve and of arterial pressure. For control, contraction was induced by intravenous injection of […] (0.04 ml). LASSBio-294 was administered in DMSO.
smiles,measurement,setting,value
"O=C(NN=Cc1cccs1)c1ccc2c(c1)OCO2 [LASSBio-294, 3,4-methylenedioxybenzoyl-2-thienylhydrazone]",LD50,LD 50 in dogs,1500 mg/kg
same,LD 50 relative to the effective dose,dogs,> 1000 fold
same,"time to fatigue, longer than control","single muscle fiber; 50 μM vs 50 μM DMSO, 60 Hz 0.8 sec tetanic stimulations",approximately 50%
same,time for tetanic force to decrease (fatigue) to 50% of the original tetanic force,"single muscle fiber; 50 μM, repetitive stimulations",~9 min
same,resistance to muscle fatigue,single muscle fiber; treated skeletal muscle fibers vs control fibers,increased resistance to muscle fatigue
same,effect on ECG,isolated rat heart,No treatment had any effect on ECG; also recorded: no change
same,increase in intraventricular and aortic pressure,isolated dog hearts,50%
same,histopathological changes in tissues and organs,tissues and organs,unaffected; also recorded: no pathological changes; also recorded: no significant histopathological changes
same,isometric tension,isolated hearts,increase in isometric tension compared to control
same,effect on neuromuscular junction / transmission,[1],no effect on the neuromuscular junction; also recorded: no effect on neuromuscular transmission; also recorded: unaffected
